Test results as given in patent publication US8475783B2, “Apparatus and method for generating carbon dioxide as an attractant for biting arthropods” (priority 2011, dated 2013).

System: mosquitoes
Assay: Field mosquito collection with CDC-type mosquito trap baited with carbon dioxide
Assay type: in vivo
Settings: for mosquitoes collected: carbon dioxide flow rate 250 mL/min
Experimental: As in Example 2, except that the sodium bicarbonate was delivered at 0.94 g·min so as to give a carbon dioxide flow rate of 250 mL/min. The gas outlet was coupled to a CDC-type mosquito trap, available from the John W. Hock Company of Gainesville Fla., and allowed to collect mosquitoes for 12 hours. For comparison, a similar trap but with carbon dioxide from a tank was placed about 100 m away. Sites were selected so as to provide a testing area that is known to be infested by mosquitoes and to provide similar terrain. In the comparison apparatus care was taken to use the same carbon dioxide flow rate.

With `O=C=O` [CO2 Gas Tank, carbon dioxide] the mosquitoes collected (Aug. 2, 2010, 12 hours) was 12, the mosquitoes collected (Aug. 5, 2010, 12 hours) was 1 and the mosquitoes collected (Jul. 8, 2010, 12 hours) was 73. The mosquitoes collected (Jul. 12, 2010, 12 hours) was 49, the mosquitoes collected (Jul. 14, 2010, 12 hours) was 14 and the mosquitoes collected (Jul. 15, 2010, 12 hours) was 73. It also gave a mosquitoes collected (Jul. 20, 2010, 12 hours) of 53, a mosquitoes collected (Jun. 23, 2010, 12 hours) of 99 and a mosquitoes collected (Jun. 29, 2010, 12 hours) of 34. For the same molecule, the “Total collected (mosquitoes)” value (sum over 9 non-consecutive days, 12 hours each, 250 mL/min carbon dioxide) was 408.
